The source of these data is ChEMBL document CHEMBL1201862, “PubChem BioAssay data set” (2004).

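Step 1: Grow cells in 96-well plates. Step 2: Expose to compound for 48 hours at 5 concentrations. Step 3: Interpolate endpoints linearly; if unreached, use highest concentration. Here, GI50 denotes the concentration required for 50% inhibition of growth.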 The source made the active and inactive calls. Rule as the data show it: active = GI50 up to about 1.1 µM and inactive = higher. Square brackets hold non-standard residues; d marks the D form. Peptide text beside a SMILES is read from it. * marks the point of attachment. Bn2Val = CC(C)[C@@H](C(=O)*)N(Cc1ccccc1)Cc1ccccc1; NH(3,4-diMeO-benzyl) = COc1ccc(CN*)cc1OC; NMeV = CN[C@H](C(=O)O)C(C)C; dNMeA = CN[C@H](C)C(=O)O Some results are limits rather than exact numbers.

Some test systems named below: A549; ACHN; K562; M14; MCF7; MOLT-4; NCI-H226; NCI-H23; OVCAR-5; RPMI-8226; RXF 393; SF-295; SK-MEL-28; SK-MEL-5; SK-OV-3; SNB-75; T47D; UO-31.
Holding throughout (assay): NCI tumour cell line growth inhibition, 48 h

For `CN(C)C=O.O=C(Nc1nnn[nH]1)c1nc(O)cc(-c2ccccc2)n1`, the GI50 in the assay on A549, in the assay with ACHN, in the assay on K562, in the assay on M14, with MCF7 and with MOLT-4 was > 100 µM (inactive) throughout. The GI50 with NCI-H226, with NCI-H23, with OVCAR-5, in the assay with RPMI-8226, with RXF 393 and in the assay on SF-295 was > 100 µM (inactive) throughout. Besides, the GI50 in the assay with SK-MEL-28, with SK-MEL-5, in the assay on SK-OV-3, in the assay on SNB-75, in the assay with T47D and with UO-31 was > 100 µM (inactive) in each case.

Consider `COC(=O)C(/C(=N/NC(=O)c1ccncc1)C(=O)Nc1ccccc1OC)c1nc2ccc(Cl)cc2nc1O` (stereo not drawn), for which the GI50 in the assay with A549 is > 100 µM (inactive); in the assay on ACHN it was > 100 µM (inactive); in the assay with K562, 75.9 µM (inactive); in the assay with M14, > 100 µM (inactive); with MCF7, > 100 µM (inactive); in the assay with MOLT-4 it was > 100 µM (inactive). In addition, the GI50 was 22.2 µM (inactive) in the assay with NCI-H226; > 100 µM (inactive) in the assay with NCI-H23; > 100 µM (inactive) in the assay with OVCAR-5; 75.5 µM (inactive) with RPMI-8226; > 100 µM (inactive) in the assay on RXF 393; > 100 µM (inactive) in the assay on SF-295. In addition, the GI50 was > 100 µM (inactive) in the assay with SK-MEL-28; > 100 µM (inactive) in the assay on SK-MEL-5; > 100 µM (inactive) in the assay on SK-OV-3; > 100 µM (inactive) with SNB-75; > 100 µM (inactive) with T47D; 47 µM (inactive) in the assay on UO-31.

As for `C[n+]1c2ccccc2c2/c(=C\C#N)c3ccccc3n21`, the GI50 in the assay with A549 is 6.92 µM (inactive); with ACHN, 4.91 µM (inactive); with K562 it was 5.42 µM (inactive); with M14, 4.15 µM (inactive); in the assay with MCF7, 2.16 µM (inactive); in the assay on MOLT-4, 3.54 µM (inactive). Also, the GI50 in the assay with NCI-H226 was 3.81 µM (inactive); in the assay on NCI-H23 it was 5.11 µM (inactive); in the assay with OVCAR-5, 5.78 µM (inactive); in the assay with RPMI-8226 it was 3.28 µM (inactive); in the assay with RXF 393 it was 4.85 µM (inactive); in the assay on SF-295 it was 5.82 µM (inactive). Besides, the GI50 was 9.25 µM (inactive) in the assay with SK-MEL-28; 6.53 µM (inactive) with SK-MEL-5; 3.88 µM (inactive) in the assay on SK-OV-3; 3.23 µM (inactive) with SNB-75; 5.73 µM (inactive) in the assay with T47D; 12.6 µM (inactive) in the assay on UO-31.

For the compound `O=C1C(c2c(O)[nH]c3ccc(Br)cc23)=Nc2ccc(Br)cc21`, the GI50 is 32.7 µM (inactive) with A549; > 100 µM (inactive) in the assay on ACHN; 43.9 µM (inactive) in the assay with K562; 97.9 µM (inactive) in the assay with M14; 13.6 µM (inactive) in the assay on MCF7; 45 µM (inactive) in the assay on MOLT-4. Further, the GI50 with NCI-H226 is > 100 µM (inactive); with NCI-H23, 27.5 µM (inactive); with OVCAR-5, > 100 µM (inactive); with RPMI-8226 it was > 100 µM (inactive); with RXF 393, 16.6 µM (inactive); in the assay on SF-295, > 100 µM (inactive). Besides, the GI50 in the assay with SK-MEL-28 was > 100 µM (inactive); in the assay on SK-MEL-5, > 100 µM (inactive); with SK-OV-3 it was 28.9 µM (inactive); with SNB-75 it was 19.7 µM (inactive); in the assay with T47D it was > 100 µM (inactive); with UO-31, > 100 µM (inactive).

`COC(=O)C(CC(C)C)NC(=O)C(NC(=O)c1ccc(-c2ccc(Cl)cc2Cl)o1)C(C)C` (stereo not drawn): the GI50 with A549 is 21 µM (inactive); with ACHN, 20.8 µM (inactive); in the assay on K562, 16 µM (inactive); in the assay with M14 it was 24 µM (inactive); with MCF7 it was 16.5 µM (inactive); in the assay with MOLT-4, 12.9 µM (inactive). For the same compound, the GI50 with NCI-H226 is 32.4 µM (inactive); in the assay on NCI-H23 it was 22.5 µM (inactive); with OVCAR-5, 22.2 µM (inactive); in the assay on RPMI-8226, 11.6 µM (inactive); in the assay on RXF 393, 14.8 µM (inactive); with SF-295, 16.2 µM (inactive). The GI50 in the assay on SK-MEL-28 was 33.4 µM (inactive); with SK-MEL-5 it was 20.3 µM (inactive); in the assay with SK-OV-3, 30.8 µM (inactive); with SNB-75 it was 23.9 µM (inactive); in the assay on T47D, 15.3 µM (inactive); with UO-31, 29 µM (inactive).

For `C=C(C)[C@@]1(O[Si](C)(C)C)CCCC[C@@H]1CC(Sc1ccccc1)Sc1ccccc1`, the GI50 in the assay with A549 is 10.1 µM (inactive); with ACHN, 15.4 µM (inactive); with K562 it was 12.7 µM (inactive); in the assay on M14, 14.9 µM (inactive); in the assay with MCF7, 12 µM (inactive); in the assay on MOLT-4, 4.89 µM (inactive). Also, the GI50 was 16.1 µM (inactive) in the assay on NCI-H226; 13.4 µM (inactive) in the assay with NCI-H23; 16.2 µM (inactive) in the assay with OVCAR-5; 16.9 µM (inactive) in the assay on RPMI-8226; 10.8 µM (inactive) with RXF 393; 12.4 µM (inactive) in the assay on SF-295. Besides, the GI50 was 18.3 µM (inactive) in the assay on SK-MEL-28; 16.3 µM (inactive) in the assay with SK-MEL-5; 20 µM (inactive) in the assay on SK-OV-3; 12.1 µM (inactive) with SNB-75; 4.26 µM (inactive) in the assay with T47D; 13.8 µM (inactive) with UO-31.

As to `COc1cc(Nc2nc3ccccc3nc2C(C)C)cc(OC)c1OC`, the GI50 in the assay on A549, in the assay on ACHN, with K562, in the assay with M14, with MCF7 and in the assay on MOLT-4 was > 100 µM (inactive) in each case. In addition, the GI50 with NCI-H226 is > 100 µM (inactive); with NCI-H23, > 100 µM (inactive); in the assay on OVCAR-5, > 100 µM (inactive); in the assay with RPMI-8226, 83.2 µM (inactive); with RXF 393 it was > 100 µM (inactive); in the assay with SF-295, 82.8 µM (inactive). Moreover, the GI50 in the assay on SK-MEL-28, in the assay on SK-MEL-5, in the assay with SK-OV-3, in the assay on SNB-75, in the assay with T47D and in the assay with UO-31 was > 100 µM (inactive) throughout.

For `CC(=O)O[C@H]1C(=O)[C@@]2(C)[C@H]([C@H](OC(=O)c3ccc(F)cc3)[C@]3(O)C[C@H](OC(=O)[C@H](O)[C@@H](NC(=O)c4ccccc4)c4ccccc4)C(C)=C1C3(C)C)[C@]1(OC(C)=O)CO[C@@H]1C[C@@H]2O`, the GI50 in the assay on A549 is 0.082 µM (active); with ACHN, 0.802 µM (active); with K562, 0.00859 µM (active); in the assay with M14, 0.0559 µM (active); in the assay with MCF7, 0.00334 µM (active); with MOLT-4, 0.0146 µM (active). Moreover, the GI50 in the assay with NCI-H226 was 0.108 µM (active); with NCI-H23, 0.124 µM (active); in the assay on OVCAR-5, 0.0222 µM (active); in the assay on RPMI-8226, 0.00592 µM (active); with RXF 393 it was 0.0813 µM (active); in the assay with SF-295 it was 0.168 µM (active). For the same compound, the GI50 with SK-MEL-28 was 9.48 µM (inactive); with SK-MEL-5 it was 0.023 µM (active); in the assay on SK-OV-3 it was 0.0159 µM (active); in the assay on SNB-75, 0.0189 µM (active); in the assay on T47D, 0.00931 µM (active); in the assay with UO-31 it was 5.92 µM (inactive).

On to `COc1ccc(CNC(=O)[C@@H](C)N(C)C(=O)[C@@H]2CCCN2C(=O)[C@H](C(C)C)N(C)C(=O)[C@@H](NC(=O)[C@H](C(C)C)N(Cc2ccccc2)Cc2ccccc2)C(C)C)cc1OC` (Bn2Val-V[NMeV]P[dNMeA]-{NH(3,4-diMeO-benzyl)}), for which the GI50 with A549 is 5.85 µM (inactive); in the assay with ACHN it was 6.97 µM (inactive); in the assay on K562, 10.8 µM (inactive); in the assay on M14, 6.92 µM (inactive); in the assay on MCF7, 4.33 µM (inactive); in the assay on MOLT-4, 4.05 µM (inactive). Further, the GI50 in the assay on NCI-H226 was 6.58 µM (inactive); in the assay with NCI-H23 it was 10.5 µM (inactive); in the assay with OVCAR-5, 8.2 µM (inactive); in the assay with RPMI-8226, 2.66 µM (inactive); with RXF 393, 5.61 µM (inactive); in the assay with SF-295, 6.28 µM (inactive). The GI50 is 8.34 µM (inactive) in the assay on SK-MEL-28; 5.87 µM (inactive) in the assay on SK-MEL-5; 12.8 µM (inactive) in the assay with SK-OV-3; 6.43 µM (inactive) in the assay with SNB-75; 7.43 µM (inactive) in the assay with T47D; > 100 µM (inactive) with UO-31.

Consider `CC12CCC(C1)C(C)(C)C2OC(=O)c1ccccc1C(=O)O` (stereo not drawn), for which the GI50 in the assay with A549, with ACHN, with K562, in the assay on M14, in the assay with MCF7 and in the assay on MOLT-4 was > 100 µM (inactive) in each case. The GI50 with NCI-H226, with NCI-H23, in the assay with OVCAR-5, in the assay on RPMI-8226, in the assay on RXF 393 and with SF-295 was > 100 µM (inactive) each time. Besides, the GI50 in the assay with SK-MEL-28, with SK-MEL-5, with SK-OV-3, in the assay on SNB-75, in the assay on T47D and with UO-31 was > 100 µM (inactive) each time.

Take `CCOC(=O)/C=C(/C(=O)OCC)n1ccc(=O)n(/C(=C/C(=O)OCC)C(=O)OCC)c1=O`: the GI50 is 17.3 µM (inactive) in the assay with A549; 3 µM (inactive) in the assay on ACHN; 2.99 µM (inactive) with K562; 4.98 µM (inactive) in the assay on M14; 6.4 µM (inactive) in the assay with MCF7; 1.76 µM (inactive) in the assay with MOLT-4. Also, the GI50 with NCI-H226 was 8.07 µM (inactive); in the assay on NCI-H23 it was 16 µM (inactive); in the assay on OVCAR-5 it was 17.1 µM (inactive); with RPMI-8226 it was 2.7 µM (inactive); with RXF 393, 3.68 µM (inactive); in the assay with SF-295, 25.6 µM (inactive). The GI50 in the assay with SK-MEL-28 is 13.1 µM (inactive); with SK-MEL-5, 14.5 µM (inactive); in the assay with SK-OV-3, 23.6 µM (inactive); in the assay with SNB-75, 16.9 µM (inactive); in the assay with T47D, 4.48 µM (inactive); in the assay with UO-31, 15.5 µM (inactive).
